Key:
[1] = system: formation of gastric lesions; assay: Antiulcerogenic action in Shay rats: protective action on the stomach (lesion index after pylorus ligature and oral acetylsalicylic acid); assay type: in vivo; conditions: rat, p.o., pylorus ligature (4 hours; Shay rat) + 100 mg/kg acetylsalicylic acid, dose reducing lesion index by 50% vs control, read-out: Protective action on the stomach (rat) inhibition of the lesion index ED50
Method: (§1) The compounds according to the invention investigated appear in the following table:
(§2) The influence of the compounds investigated on the formation of gastric lesions triggered by pylorus ligature (4 hours; Shay rat) and oral administration of 100 mg/kg of acetylsalicylic acid on the inhibition of gastric secretion (HCl) in rats during 4 hours is shown in the following table:
(§3) The antiulcerogenic action was tested in Shay rats:
(§4) Ulcers were provoked in rats which had fasted for 24 hours (female, 180-200 g, 4 animals per cage on a high grid) by pylorus ligature (under diethyl ether anesthesia) and oral administration of 100 mg/10 ml/kg of acetylsalicylic acid. The substances to be tested are administered orally (10 ml/kg) one hour before the pylorus ligature. The wound is closed by means of Michel clamps. 4 hours thereafter, the animals are sacrificed under ether anesthesia by atlas dislocation and the stomach is resected. The stomach is opened longitudinally and fixed to a cork plate, after first determining the amount of secreted gastric juice (volume) and later its HCl content (titration with sodium hydroxide solution). The number and size (=diameter) of ulcers present are determined with a stereomicroscope with 10-fold magnification. The product of the degree of severity (according to the following points scale) and number of ulcers serves as the individual lesion index.
ulcer diameter 0.1-1.4 mm
(§5) The reduction in the average lesion index of each treated group compared with that of the control group (=100%) serves as a measure of the antiulcerogenic effect.

[2] = system: HCl secretion in the stomach; assay: Inhibition of gastric secretion (HCl) in the stomach of the Shay rat over 4 hours; assay type: in vivo; conditions: total of 4 hours; for ED25 / ED50: po; for ED25: dose reducing HCl secretion by 25% vs control; for ED50: dose reducing HCl secretion by 50% vs control; for % inhibition of HCl secretion: after administration of the antiulcerous ED50
Method: as §1, §2
ED25+ and ED50+ = dose which reduces the lesion index and the HCL
secretion (over 4 hours) in the rat stomach by 25% and 50% in the treated
group in comparison with the control group.
(++) = after administration of the antiulcerous ED50
as §3, §4, §5

| SMILES | ED50 [1] [mg/kg] | ED25 [2] [mg/kg] | ED50 [2] [mg/kg] | % inhibition of HCl secretion [2] [%] |
| --- | --- | --- | --- | --- |
| COc1cnc(C[S+]([O-])c2nc3cc(OC(F)(F)F)ccc3[nH]2)c(C)c1OC (centres unmarked) [Serial No. 2, 2-[(4,5-Dimethoxy-3-methyl-2-pyridyl)methylsulfinyl]-5-trifluoromethoxy-1H-benzimidazole] | 0.8 | 0.7 | 1.7 | 25 |
| COc1cnc(C[S+]([O-])c2nc3cc(OC(F)(F)F)ccc3[nH]2)cc1OC (centres unmarked) [Serial No. 1, 2-[(4,5-Dimethoxy-2-pyridyl)methylsulfinyl]-5-trifluoromethoxy-1H-benzimidazole] | 0.6 | 1 | ~3 | 15 |
| COc1cnc(C[S+]([O-])c2nc3cc4c(cc3[nH]2)OC(F)(F)O4)cc1OC (centres unmarked) [Serial No. 5, 2,2-Difluoro-6-[(4,5-dimethoxy-2-pyridyl)methylsulfinyl]-5H-[1,3]-dioxolo[4,5-f]benzimidazole] | ~1 | 1 | 3 | 25 |
| COc1cnc(CSc2nc3cc4c(cc3[nH]2)OC(F)(F)O4)cc1OC [Serial No. 4, 2,2-difluoro-6-[(4,5-dimethoxy-2-pyridyl)methylthio]-5H-[1,3]-dioxolo[4,5-f]benzimidazole] | 3.5 | 3 | 6.5 | 28 |
| COc1cnc(C[S+]([O-])c2nc3cc(OC(F)(F)C(F)F)ccc3[nH]2)cc1OC (centres unmarked) [Serial No. 3, 2-[(4,5-dimethoxy-2-pyridyl)methylsulfinyl]-5-(1,1,2,2-tetrafluoroethoxy)-1H-benzimidazole] | 0.6 | ~1 | 3.4 | 18 |

— US4758579A, “Fluoroalkoxy substituted benzimidazoles useful as gastric acid secretion inhibitors” (BYK Gulden Lomberg Chemische Fabrik GmbH, priority 1984, dated 1988)
